Test results taken from ChEMBL document CHEMBL5723584 (2023).
Calls of active or inactive are those of the source. The rule behind the calls is not given here.

Columns and labels:
[1] = target: Citron Rho-interacting kinase (Homo sapiens, UniProt O14578); assay: Promega NanoBRET (CIT)
[2] = target: ALK tyrosine kinase receptor (Homo sapiens) (UniProt Q9UM73); assay: activity of ALK(h) at 1.0 µM in the Eurofins Kinase panel; settings: Compound concentration 1.0 uM
[3] = target: Tyrosine-protein kinase ABL2 (Homo sapiens) (UniProt P42684); assay: activity of Arg(h) at 1.0 µM in the Eurofins Kinase panel; settings: Compound concentration 1.0 uM
[4] = target: Tyrosine-protein kinase BTK (Homo sapiens) (UniProt Q06187); assay: activity of BTK(h) at 1.0 µM in the Eurofins Kinase panel; settings: Compound concentration 1.0 uM
[5] = target: Calcium/calmodulin-dependent protein kinase type 1B (Homo sapiens) (UniProt Q6P2M8); assay: activity of CaMKIbeta(h) at 1.0 µM in the Eurofins Kinase panel; settings: Compound concentration 1.0 uM
[6] = target: Cyclin-Y/Cyclin-dependent kinase 16 (Homo sapiens) (UniProt Q00536+Q8ND76); assay: activity of CDK16/cyclinY(h) at 1.0 µM in the Eurofins Kinase panel; assay type: protein-complex assay; settings: Compound concentration 1.0 uM
[7] = target: Casein kinase I isoform gamma-3 (Homo sapiens) (UniProt Q9Y6M4); assay: activity of CK1gamma3(h) at 1.0 µM in the Eurofins Kinase panel; settings: Compound concentration 1.0 uM
[8] = target: Casein kinase I isoform delta (Homo sapiens) (UniProt P48730); assay: activity of CK1delta(h) at 1.0 µM in the Eurofins Kinase panel; settings: Compound concentration 1.0 uM
[9] = target: Proto-oncogene tyrosine-protein kinase Src (Homo sapiens) (UniProt P12931); assay: activity of cSRC(h) at 1.0 µM in the Eurofins Kinase panel; settings: Compound concentration 1.0 uM
[10] = target: Epidermal growth factor receptor (Homo sapiens) (UniProt P00533); assay: activity of EGFR(h) at 1.0 µM in the Eurofins Kinase panel; settings: Compound concentration 1.0 uM
Sequence of Epidermal growth factor receptor (Homo sapiens) (P00533 whole entry): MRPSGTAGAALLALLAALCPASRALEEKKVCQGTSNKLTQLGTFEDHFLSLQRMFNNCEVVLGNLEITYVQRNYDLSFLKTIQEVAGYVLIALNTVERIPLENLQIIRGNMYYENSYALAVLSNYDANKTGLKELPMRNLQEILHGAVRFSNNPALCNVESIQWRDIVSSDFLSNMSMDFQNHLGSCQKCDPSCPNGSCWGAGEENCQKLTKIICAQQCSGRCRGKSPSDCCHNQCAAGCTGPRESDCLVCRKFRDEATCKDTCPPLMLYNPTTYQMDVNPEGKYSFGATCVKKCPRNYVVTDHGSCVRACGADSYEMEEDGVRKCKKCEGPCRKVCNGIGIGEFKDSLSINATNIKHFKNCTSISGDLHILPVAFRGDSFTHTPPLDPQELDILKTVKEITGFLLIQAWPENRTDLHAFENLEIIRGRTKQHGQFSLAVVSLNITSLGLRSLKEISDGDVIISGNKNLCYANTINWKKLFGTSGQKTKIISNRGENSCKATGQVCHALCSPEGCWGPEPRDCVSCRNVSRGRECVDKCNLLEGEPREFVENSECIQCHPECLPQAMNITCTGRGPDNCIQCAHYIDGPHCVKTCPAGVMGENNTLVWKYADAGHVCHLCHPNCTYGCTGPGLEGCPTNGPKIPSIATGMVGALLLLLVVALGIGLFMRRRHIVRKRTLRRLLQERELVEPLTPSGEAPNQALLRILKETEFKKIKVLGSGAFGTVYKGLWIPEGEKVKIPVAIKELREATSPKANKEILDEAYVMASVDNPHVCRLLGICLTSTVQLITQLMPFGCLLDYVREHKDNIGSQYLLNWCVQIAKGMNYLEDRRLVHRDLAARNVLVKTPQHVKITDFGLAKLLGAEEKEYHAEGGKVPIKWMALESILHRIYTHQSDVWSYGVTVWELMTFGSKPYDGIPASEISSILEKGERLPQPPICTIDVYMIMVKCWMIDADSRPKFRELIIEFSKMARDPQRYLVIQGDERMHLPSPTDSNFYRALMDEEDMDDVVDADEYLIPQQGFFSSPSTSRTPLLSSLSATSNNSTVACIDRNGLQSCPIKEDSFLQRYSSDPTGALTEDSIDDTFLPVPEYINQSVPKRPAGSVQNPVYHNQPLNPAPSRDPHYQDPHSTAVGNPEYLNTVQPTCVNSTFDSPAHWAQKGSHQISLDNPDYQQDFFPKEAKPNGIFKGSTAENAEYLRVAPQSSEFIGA

[11] = target: Ephrin type-A receptor 4 (Homo sapiens) (UniProt P54764); assay: activity of EphA4(h) at 1.0 µM in the Eurofins Kinase panel; settings: Compound concentration 1.0 uM
[12] = target: Receptor tyrosine-protein kinase erbB-4 (Homo sapiens) (UniProt Q15303); assay: activity of ErbB4(h) at 1.0 µM in the Eurofins Kinase panel; settings: Compound concentration 1.0 uM
[13] = target: Tyrosine-protein kinase Fyn (Homo sapiens) (UniProt P06241); assay: activity of Fyn(h) at 1.0 µM in the Eurofins Kinase panel; settings: Compound concentration 1.0 uM
[14] = target: Glycogen synthase kinase-3 beta (Homo sapiens) (UniProt P49841); assay: activity of GSK3beta(h) at 1.0 µM in the Eurofins Kinase panel; settings: Compound concentration 1.0 uM
[15] = target: Serine/threonine-protein kinase ICK (Homo sapiens) (UniProt Q9UPZ9); assay: activity of ICK(h) at 1.0 µM in the Eurofins Kinase panel; settings: Compound concentration 1.0 uM
Sequence of Serine/threonine-protein kinase ICK (Homo sapiens) (Q9UPZ9 whole entry): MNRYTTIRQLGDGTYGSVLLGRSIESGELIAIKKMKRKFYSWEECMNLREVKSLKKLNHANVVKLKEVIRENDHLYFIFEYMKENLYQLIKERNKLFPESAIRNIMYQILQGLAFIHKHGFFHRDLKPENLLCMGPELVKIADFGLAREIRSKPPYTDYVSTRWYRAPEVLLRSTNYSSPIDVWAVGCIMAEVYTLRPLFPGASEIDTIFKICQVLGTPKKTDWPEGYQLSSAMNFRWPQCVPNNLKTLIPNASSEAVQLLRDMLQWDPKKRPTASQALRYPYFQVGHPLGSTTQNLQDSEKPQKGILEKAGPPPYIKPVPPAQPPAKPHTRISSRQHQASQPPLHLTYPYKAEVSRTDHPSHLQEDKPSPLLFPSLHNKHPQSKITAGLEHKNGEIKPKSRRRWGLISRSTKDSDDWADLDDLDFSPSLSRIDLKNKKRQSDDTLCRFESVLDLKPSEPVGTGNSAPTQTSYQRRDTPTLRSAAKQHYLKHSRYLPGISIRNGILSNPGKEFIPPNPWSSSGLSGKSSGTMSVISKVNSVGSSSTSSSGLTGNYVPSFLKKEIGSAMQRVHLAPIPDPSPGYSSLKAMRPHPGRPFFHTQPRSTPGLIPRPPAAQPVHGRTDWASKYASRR

[16] = target: Insulin-like growth factor 1 receptor (Homo sapiens) (UniProt P08069); assay: activity of IGF-1R(h), activated at 1.0 µM in the Eurofins Kinase panel; settings: Compound concentration 1.0 uM
[17] = target: Insulin receptor (Homo sapiens) (UniProt P06213); assay: activity of IR(h), activated at 1.0 µM in the Eurofins Kinase panel; settings: Compound concentration 1.0 uM
Sequence of Insulin receptor (Homo sapiens) (P06213 28-758 limits assumed): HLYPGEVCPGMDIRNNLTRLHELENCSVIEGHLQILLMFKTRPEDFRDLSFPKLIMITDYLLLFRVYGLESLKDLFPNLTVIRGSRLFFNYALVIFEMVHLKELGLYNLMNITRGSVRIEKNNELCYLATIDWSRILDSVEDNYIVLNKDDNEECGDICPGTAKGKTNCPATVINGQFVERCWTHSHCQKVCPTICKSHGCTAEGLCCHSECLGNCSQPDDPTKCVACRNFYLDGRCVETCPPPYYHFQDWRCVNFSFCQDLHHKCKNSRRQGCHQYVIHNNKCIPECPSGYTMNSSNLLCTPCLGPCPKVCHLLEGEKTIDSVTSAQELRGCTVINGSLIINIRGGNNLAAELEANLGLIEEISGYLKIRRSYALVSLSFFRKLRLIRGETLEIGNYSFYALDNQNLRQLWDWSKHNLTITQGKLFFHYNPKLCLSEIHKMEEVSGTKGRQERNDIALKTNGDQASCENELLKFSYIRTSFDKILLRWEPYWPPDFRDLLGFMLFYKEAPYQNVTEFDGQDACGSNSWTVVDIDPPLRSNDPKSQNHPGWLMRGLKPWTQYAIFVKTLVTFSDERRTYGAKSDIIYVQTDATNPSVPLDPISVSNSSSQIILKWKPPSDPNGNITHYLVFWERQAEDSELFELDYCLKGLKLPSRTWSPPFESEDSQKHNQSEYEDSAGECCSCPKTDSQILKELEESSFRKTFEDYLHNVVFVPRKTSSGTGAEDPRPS
Sequence of Insulin receptor (Homo sapiens) (P06213 763-1382 limits assumed): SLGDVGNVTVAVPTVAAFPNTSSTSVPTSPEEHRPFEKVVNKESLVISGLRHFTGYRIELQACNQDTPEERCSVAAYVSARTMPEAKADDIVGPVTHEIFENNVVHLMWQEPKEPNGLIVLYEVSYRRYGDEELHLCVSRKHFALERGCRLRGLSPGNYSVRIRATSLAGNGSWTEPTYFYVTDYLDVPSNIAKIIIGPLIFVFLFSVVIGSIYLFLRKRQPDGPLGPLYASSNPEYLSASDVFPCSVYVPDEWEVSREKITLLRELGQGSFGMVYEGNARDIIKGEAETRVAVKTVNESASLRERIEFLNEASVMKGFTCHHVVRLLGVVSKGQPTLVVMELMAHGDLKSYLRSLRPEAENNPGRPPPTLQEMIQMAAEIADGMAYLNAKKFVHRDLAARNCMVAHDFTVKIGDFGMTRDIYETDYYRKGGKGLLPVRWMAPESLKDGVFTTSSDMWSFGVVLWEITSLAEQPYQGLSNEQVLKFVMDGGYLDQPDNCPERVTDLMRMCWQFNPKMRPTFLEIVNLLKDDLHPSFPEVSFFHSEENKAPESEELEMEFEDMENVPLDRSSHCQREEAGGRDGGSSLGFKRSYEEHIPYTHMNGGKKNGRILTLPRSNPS

[18] = target: Interleukin-1 receptor-associated kinase 1 (Homo sapiens) (UniProt P51617); assay: activity of IRAK1(h) at 1.0 µM in the Eurofins Kinase panel; settings: Compound concentration 1.0 uM
[19] = target: Tyrosine-protein kinase ITK/TSK (Homo sapiens) (UniProt Q08881); assay: activity of Itk(h) at 1.0 µM in the Eurofins Kinase panel; settings: Compound concentration 1.0 uM
[20] = target: Mitogen-activated protein kinase kinase kinase kinase 5 (Homo sapiens) (UniProt Q9Y4K4); assay: activity of MAP4K5(h) at 1.0 µM in the Eurofins Kinase panel; settings: Compound concentration 1.0 uM
[21] = target: Mitogen-activated protein kinase 1 (Homo sapiens) (UniProt P28482); assay: activity of MAPK1(h) at 1.0 µM in the Eurofins Kinase panel; settings: Compound concentration 1.0 uM
[22] = target: Dual specificity mitogen-activated protein kinase kinase 3 (Homo sapiens) (UniProt P46734); assay: activity of MKK3(h) at 1.0 µM in the Eurofins Kinase panel; settings: Compound concentration 1.0 uM
[23] = target: Mitogen-activated protein kinase kinase kinase 9 (Homo sapiens) (UniProt P80192); assay: activity of MLK1(h) at 1.0 µM in the Eurofins Kinase panel; settings: Compound concentration 1.0 uM
[24] = target: Serine/threonine-protein kinase Nek4 (Homo sapiens) (UniProt P51957); assay: activity of NEK4(h) at 1.0 µM in the Eurofins Kinase panel; settings: Compound concentration 1.0 uM
Sequence of Serine/threonine-protein kinase Nek4 (Homo sapiens) (P51957 whole entry, looked up): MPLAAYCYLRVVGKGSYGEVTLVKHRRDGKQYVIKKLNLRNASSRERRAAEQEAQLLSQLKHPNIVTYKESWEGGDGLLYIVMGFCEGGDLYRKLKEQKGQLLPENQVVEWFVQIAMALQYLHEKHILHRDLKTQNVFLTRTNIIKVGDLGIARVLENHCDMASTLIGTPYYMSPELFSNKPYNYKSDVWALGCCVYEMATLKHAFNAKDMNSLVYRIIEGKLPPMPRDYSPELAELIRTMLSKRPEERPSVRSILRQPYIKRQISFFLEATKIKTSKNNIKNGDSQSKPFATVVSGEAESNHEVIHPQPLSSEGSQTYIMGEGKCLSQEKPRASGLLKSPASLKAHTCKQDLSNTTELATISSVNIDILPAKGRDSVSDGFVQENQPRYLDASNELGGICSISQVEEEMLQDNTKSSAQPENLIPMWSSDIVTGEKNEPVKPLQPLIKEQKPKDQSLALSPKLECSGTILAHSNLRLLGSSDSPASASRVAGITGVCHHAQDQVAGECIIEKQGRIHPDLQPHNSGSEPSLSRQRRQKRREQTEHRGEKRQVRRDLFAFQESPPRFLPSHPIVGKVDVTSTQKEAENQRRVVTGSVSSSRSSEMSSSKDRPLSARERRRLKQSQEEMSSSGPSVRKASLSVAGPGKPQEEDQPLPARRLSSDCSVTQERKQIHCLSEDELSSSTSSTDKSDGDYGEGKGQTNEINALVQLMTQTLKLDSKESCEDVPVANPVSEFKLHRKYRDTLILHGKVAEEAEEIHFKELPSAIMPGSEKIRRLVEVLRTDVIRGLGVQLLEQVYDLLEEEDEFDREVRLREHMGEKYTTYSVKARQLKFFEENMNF

[25] = target: Serine/threonine-protein kinase NIM1 (Homo sapiens) (UniProt Q8IY84); assay: activity of NIM1(h) at 1.0 µM in the Eurofins Kinase panel; settings: Compound concentration 1.0 uM
Sequence of Serine/threonine-protein kinase NIM1 (Homo sapiens) (Q8IY84 whole entry): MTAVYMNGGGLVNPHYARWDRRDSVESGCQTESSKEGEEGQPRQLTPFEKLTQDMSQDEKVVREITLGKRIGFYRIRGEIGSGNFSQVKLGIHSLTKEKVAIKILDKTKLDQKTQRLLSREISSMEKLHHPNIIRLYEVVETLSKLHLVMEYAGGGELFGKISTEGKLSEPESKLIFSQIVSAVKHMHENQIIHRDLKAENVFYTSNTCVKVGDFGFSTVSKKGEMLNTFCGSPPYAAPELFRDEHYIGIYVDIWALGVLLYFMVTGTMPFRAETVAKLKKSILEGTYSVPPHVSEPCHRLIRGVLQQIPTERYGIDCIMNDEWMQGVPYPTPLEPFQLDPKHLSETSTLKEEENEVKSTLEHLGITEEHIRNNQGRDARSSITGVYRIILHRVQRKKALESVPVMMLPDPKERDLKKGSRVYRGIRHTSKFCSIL

[26] = target: [Pyruvate dehydrogenase (acetyl-transferring)] kinase isozyme 4, mitochondrial (Homo sapiens) (UniProt Q16654); assay: activity of PDHK4(h) at 1.0 µM in the Eurofins Kinase panel; settings: Compound concentration 1.0 uM
[27] = target: RAC-alpha serine/threonine-protein kinase (Homo sapiens) (UniProt P31749); assay: activity of PKBalpha(h) at 1.0 µM in the Eurofins Kinase panel; settings: Compound concentration 1.0 uM
[28] = target: RAC-beta serine/threonine-protein kinase (Homo sapiens) (UniProt P31751); assay: activity of PKBbeta(h) at 1.0 µM in the Eurofins Kinase panel; settings: Compound concentration 1.0 uM
[29] = target: Protein kinase C zeta type (Homo sapiens) (UniProt Q05513); assay: activity of PKCzeta(h) at 1.0 µM in the Eurofins Kinase panel; settings: Compound concentration 1.0 uM
[30] = target: Serine/threonine-protein kinase D2 (Homo sapiens) (UniProt Q9BZL6); assay: activity of PKD2(h) at 1.0 µM in the Eurofins Kinase panel; settings: Compound concentration 1.0 uM
[31] = target: Serine/threonine-protein kinase D3 (Homo sapiens) (UniProt O94806); assay: activity of PKD3(h) at 1.0 µM in the Eurofins Kinase panel; settings: Compound concentration 1.0 uM
[32] = target: cGMP-dependent protein kinase 1 (Homo sapiens) (UniProt Q13976); assay: activity of PKG1alpha(h) at 1.0 µM in the Eurofins Kinase panel; settings: Compound concentration 1.0 uM
[33] = target: Serine/threonine-protein kinase PLK1 (Homo sapiens) (UniProt P53350); assay: activity of Plk1(h) at 1.0 µM in the Eurofins Kinase panel; settings: Compound concentration 1.0 uM
[34] = target: Macrophage-stimulating protein receptor (Homo sapiens) (UniProt Q04912); assay: activity of Ron(h) at 1.0 µM in the Eurofins Kinase panel; settings: Compound concentration 1.0 uM
[35] = target: Proto-oncogene tyrosine-protein kinase ROS (Homo sapiens) (UniProt P08922); assay: activity of Ros(h) at 1.0 µM in the Eurofins Kinase panel; settings: Compound concentration 1.0 uM
[36] = target: Serine/threonine-protein kinase Sgk3 (Homo sapiens) (UniProt Q96BR1); assay: activity of SGK3(h) at 1.0 µM in the Eurofins Kinase panel; settings: Compound concentration 1.0 uM
Sequence of Serine/threonine-protein kinase Sgk3 (Homo sapiens) (Q96BR1 whole entry): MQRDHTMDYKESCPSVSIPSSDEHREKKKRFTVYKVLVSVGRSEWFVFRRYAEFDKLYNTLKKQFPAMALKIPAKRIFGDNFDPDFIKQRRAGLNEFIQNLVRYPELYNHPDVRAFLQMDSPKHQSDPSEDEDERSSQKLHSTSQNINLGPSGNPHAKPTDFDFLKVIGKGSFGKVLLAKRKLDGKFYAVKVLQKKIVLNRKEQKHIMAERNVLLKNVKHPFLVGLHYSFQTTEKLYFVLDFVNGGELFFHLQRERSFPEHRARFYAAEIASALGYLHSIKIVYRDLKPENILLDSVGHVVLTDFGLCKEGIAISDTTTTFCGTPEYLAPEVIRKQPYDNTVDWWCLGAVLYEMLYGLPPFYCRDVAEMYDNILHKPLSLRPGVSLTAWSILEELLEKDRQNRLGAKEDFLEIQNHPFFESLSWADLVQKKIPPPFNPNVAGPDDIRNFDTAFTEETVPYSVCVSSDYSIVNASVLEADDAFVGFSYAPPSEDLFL

[37] = target: Serine/threonine-protein kinase 33 (Homo sapiens) (UniProt Q9BYT3); assay: activity of STK33(h) at 1.0 µM in the Eurofins Kinase panel; settings: Compound concentration 1.0 uM
[38] = target: Angiopoietin-1 receptor (Homo sapiens) (UniProt Q02763); assay: activity of Tie2(h) at 1.0 µM in the Eurofins Kinase panel; settings: Compound concentration 1.0 uM
[39] = target: TRAF2 and NCK-interacting protein kinase (Homo sapiens) (UniProt Q9UKE5); assay: activity of TNIK(h) at 1.0 µM in the Eurofins Kinase panel; settings: Compound concentration 1.0 uM
[40] = target: Serine/threonine-protein kinase VRK2 (Homo sapiens) (UniProt Q86Y07); assay: activity of VRK2(h) at 1.0 µM in the Eurofins Kinase panel; settings: Compound concentration 1.0 uM

IC50 [1]: 51 nM (active) | activity [2]: 77% | activity [3]: 72% | activity [4]: 122% | activity [5]: 85% | activity [6]: 98% | activity [7]: 84% | activity [8]: 96% | activity [9]: 93% | activity [10]: 107% | activity [11]: 92% | activity [12]: 94% | activity [13]: 100% | activity [14]: 93% | activity [15]: 99% | activity [16]: 93% | activity [17]: 92% | activity [18]: 95% | activity [19]: 86% | activity [20]: 92% | activity [21]: 95% | activity [22]: 97% | activity [23]: 103% | activity [24]: 90% | activity [25]: 112% | activity [26]: 101% | activity [27]: 87% | activity [28]: 109% | activity [29]: 88% | activity [30]: 95% | activity [31]: 97% | activity [32]: 118% | activity [33]: 111% | activity [34]: 111% | activity [35]: 97% | activity [36]: 102% | activity [37]: 98% | activity [38]: 99% | activity [39]: 93% | activity [40]: 100%
Structure (SMILES): Cc1cc2c(-c3ccc(NC(=O)[C@H](N)CC(C)(C)C)cc3C)ccnc2[nH]1
